Results on 92 compounds are retold here after the Bradley open melting point set (2014).

A word on the melting point: it is the temperature of the solid-liquid transition.

The structures appear in SMILES notation.

Turning to `CC(=O)OC1=CC(c2ccccc2)c2ccccc21` (configuration not stated) [1-phenyl-1H-inden-3-yl acetate], the melting point was 56 °C.
As for `O=C(O)c1ccc([N+](=O)[O-])cc1` [4-nitrobenzoic acid], the figure is 240 °C; as for `C=Cc1cccc(O)c1` [m-vinyl_phenol], 1 °C.
`CCC(C)Br` (configuration not stated) [2-bromobutane] displayed a melting point of -112 °C.
As for `OCc1ccc(F)cc1Cl` [2-chloro-4-fluorobenzyl alcohol], the figure is 45 °C.
`CC1(O)CCCC1` [1-methylcyclopentanol] returned a melting point of 37 °C.
The compound `C=Cc1ccc(N)cc1` [p-vinylaniline] registered a melting point of 26 °C.
As for `C1CCNC1` [Pyrrolidine], the figure is -60 °C; as for `Cc1c(N(C)C)c(=O)n(-c2ccccc2)n1C`, 108 °C.
Consider `CC(=O)C(C)(C)C` [3,3-Dimethylbutan-2-one], for which the melting point is -52.5 °C.
In turn, `CCCCCOC(C)=O` [amyl_acetate] returned a melting point of -100 °C.
Under `C[Si](C)(C)Br` [bromotrimethylsilane] stands -44 °C; under `O=Cc1cc(B(O)O)ccc1F` [4-fluoro-3-formylbenzeneboronic acid], 240 °C.
Under `Cc1nc2ccccc2o1` [2-methylbenzoxazole] stands 3 °C.
Compound `O=C(Nc1ccccn1)C(C(F)(F)F)C(F)(F)F` displayed a melting point of 109 °C.
For `O=[N+]([O-])c1ccccc1B(O)O` [2-nitrobenzeneboronic acid], the melting point turned out to be 150 °C.
`O=C1c2ccccc2C(=O)N1CBr` [N-(bromomethyl)phthalimide]: the melting point was determined as 147 °C.
As for `Cc1cc(C)nc(NS(=O)(=O)c2ccc(N)cc2)n1` [sulfamethazine], the figure is 200 °C; as for `O=S(=O)(Nc1ccc(Cl)cc1)c1ccccc1` [4-chloro-1-phenylsulfonamidobenzene], 122 °C; as for `CCC(O)C(C)(C)C` (configuration not stated) [2,2-dimethyl-3-pentanol], 5 °C.
Compound `CC(=O)Nc1c(Br)cc(N)cc1Br` [4'-amino-2',6'-dibromoacetanilide] gave a melting point of 248 °C.
Regarding `O=[N+]([O-])c1cccc(Cl)c1` [1-chloro-3-nitrobenzene], the melting point was 45 °C.
With `Sc1nccs1` [2-mercaptothiazole], the melting point came to 79 °C.
Compound `c1ccc(NNc2ccccc2)cc1` [1,2-Diphenylhydrazine] gave a melting point of 125 °C.
Turning to `OC1CC2=C(CC=CC2)CC1O` (configuration not stated) [1,2,3,4,5,8-hexahydronaphthalene-2,3-diol], the melting point was 121 °C.
For `O=C(Nc1ccccc1)c1ccccc1` [benzanilide], the melting point turned out to be 164 °C.
As for `O=C(O)/C(=C/c1ccc([N+](=O)[O-])cc1)c1ccccc1` [(E)-2-phenyl-3-(4-nitrophenyl)propenoic acid], the figure is 216 °C; as for `Fc1nc(Cl)c2nc[nH]c2n1` [6-chloro-2-fluoropurine], 152 °C; as for `BrC(=C(c1ccccc1)c1ccccc1)c1ccccc1` [bromotriphenylethylene], 114 °C.
Under `O=C(O)c1ccc(Br)cc1` [4-bromobenzoic acid] stands 256 °C; under `O=C(O)/C=C(/CC(=O)O)C(=O)O` [cis-aconitic acid], 118 °C.
Consider `C[C@]12C=CC(=O)C=C1CC[C@@H]1[C@@H]2[C@@H](O)C[C@@]2(C)[C@H]1CC[C@]2(O)C(=O)CO` [Prednisolone], for which the melting point amounted to 240 °C.
Consider `CC(C)[N+](=O)[O-]` [2-Nitropropane], for which the melting point is -93 °C.
Compound `Cc1cccc(C)n1` [2,6-Dimethylpyridine] had a melting point of -6 °C.
For the compound `O=C(O)[C@@H](O)[C@H](O)C(=O)O` [D-tartaric acid], the melting point came out at 168 °C.
`Brc1ccc(Br)cc1` [1,4-Dibromobenzene] had a melting point of 88 °C.
As for `Nc1nc2ccc([N+](=O)[O-])cc2s1` [2-Amino-6-nitrobenzothiazole], the melting point turned out to be 248 °C.
As to `Cc1ccc2sccc2c1` [5-methylbenzo[b]thiophene], the melting point worked out at 34 °C.
In turn, `CC(C)(c1ccc(O)cc1)c1ccc(O)cc1` [bisphenol a] showed a melting point of 156 °C.
As for `NC(c1ccccc1)c1ccccc1` [aminodiphenylmethane], the figure is 12 °C; as for `O=C(Cl)C(Cl)(Cl)Cl` [trichloroacetyl chloride], -146 °C; as for `O=C(Nc1ccc2cc(OC(=O)c3ccccc3)ccc2c1)c1ccccc1` [6-[(phenylcarbonyl)amino]naphthalen-2-yl benzoate], 227 °C.
Compound `Cc1ccc(S(N)(=O)=O)cc1` [p-toluenesulfonamide] displayed a melting point of 139 °C.
In turn, `Clc1ccccc1I` [1-chloro-2-iodobenzene] came in with a melting point of 1 °C.
For `O=C(C=Cc1ccc([N+](=O)[O-])cc1)c1ccccc1` [2-Propen-1-one, 3- (4-nitrophenyl)-1-phenyl-], the melting point stood at 161 °C.
As for `Cc1cccc(C#N)c1` [m-tolunitrile], the figure is -23 °C; as for `c1ccc2c(c1)oc1ccccc12` [dibenzofuran], 82 °C; as for `O=C(Cl)c1ccccc1F` [2-fluorobenzoyl chloride], 5 °C.
In the case of `CCCCCCCC(=O)CC` [3-decanone], the melting point is -4 °C.
As for `c1cc2c3c(cccc3c1)CC2` [acenaphthene], the figure is 95 °C; as for `O=C1NC(=O)c2c1cccc2[N+](=O)[O-]` [3-nitrophthalimide], 219 °C.
In turn, `OCCc1ccc(OCc2ccccc2)cc1` [2-(4-benzyloxyphenyl)ethanol] came in with a melting point of 86 °C.
`O=C1CCC1` [cyclobutanone]: the melting point was -51 °C.
Regarding `Cc1ccc(Cl)c(N)c1` [2-chloro-5-methylaniline], the melting point was determined as 31 °C.
The compound `COc1cc(C)c2c(c1)CC/C(=C\c1ccccc1)C2=O` gave a melting point of 97 °C.
For the compound `Oc1ccc(OCc2ccccc2)cc1` [Agerite], the melting point was 120 °C.
In the case of `CC(=O)Nc1ccc(Cl)cc1F` [4'-chloro-2'-fluoroacetanilide], the melting point came out at 156 °C.
`O=Cc1ccccc1C=O` [Phthalaldehyde]: the melting point stood at 56 °C.
Under `Nc1ccc(Cl)c(Cl)c1` [3,4-dichloroaniline] stands 72 °C; under `COC(=O)c1ccc(Br)cc1` [methyl_4-bromobenzoate], 81 °C.
Under `O=C(CCCN1CCC2(CC1)C(=O)NCN2c1ccccc1)c1ccc(F)cc1` [spiperone] stands 190 °C.
With `COc1cc(/C=C/C(=O)NCCc2ccc(OCc3ccccc3)c(OC)c2)ccc1OCc1ccccc1`, the melting point came to 164 °C.
For `N#CCc1ccccc1C(=O)O` [o-cyanomethyl_benzoic_acid], the melting point came to 115 °C.
On to `Cc1cccc([N+](=O)[O-])c1C` [3-nitro-1,2-dimethylbenzene], for which the melting point stood at 9 °C.
`O=[N+]([O-])c1c(Br)sc(Br)c1[N+](=O)[O-]` [2,5-dibromo-3,4-dinitrothiophene] came in with a melting point of 136 °C.
Compound `CCOC(=O)C1(c2ccccc2)CCN(CCc2ccc(N)cc2)CC1` [anileridine] came in with a melting point of 83 °C.
For the compound `[O-][Cl+3]([O-])([O-])O` [Perchloric acid], the melting point is -17 °C.
Under `ClC1=C(Cl)[C@]2(Cl)[C@@H]3[C@@H]4C[C@@H]([C@H]5O[C@@H]45)[C@@H]3[C@@]1(Cl)C2(Cl)Cl` stands 176 °C.
In turn, `O=C(c1ccccc1)c1ccc(Cl)cc1` [4-chlorobenzophenone] registered a melting point of 76 °C.
Turning to `CC(C)CCC[C@@H](C)[C@H]1CC[C@H]2[C@@H]3CC=C4C[C@@H](O)CC[C@]4(C)[C@H]3CC[C@]12C` [(3beta)-Cholest-5-en-3-ol], the melting point was 149 °C.
Under `ClC(Cl)c1ccccc1` [benzal chloride] stands -16 °C.
Regarding `CCCCCBr` [1-bromopentane], the melting point is -95 °C.
Consider `C#CCCCCCCCCCCCCCC` [1-hexadecyne], for which the melting point amounted to 15 °C.
On to `O=C(O)c1c(Cl)cccc1Cl` [2,6-Dichlorobenzoic acid], for which the melting point stood at 144 °C.
Take `Cc1cncc(C(=O)O)c1` [5-methylnicotinic acid]: the melting point is 213 °C.
In turn, `CCC=O` [propionaldehyde] had a melting point of -81 °C.
In the case of `CCCCC(CC)COC(=O)CCCCC(=O)OCC(CC)CCCC` (configuration not stated) [bis(2-ethylhexyl) adipate], the melting point is -67 °C.
For the compound `CC1=CC(=O)CC(C)(C)C1=O` [2,6,6-trimethyl-2-cyclohexene-1,4-dione], the melting point was found to be 20 °C.
On to `CCCCI` [1-iodobutane], for which the melting point was -103 °C.
In turn, `COC1OC(=O)c2ccccc21` (configuration not stated) [3-methoxy-2-benzofuran-1(3H)-one] had a melting point of 44 °C.
On to `CCCCC1C(=O)N(c2ccccc2)N(c2ccccc2)C1=O` [phenylbutazone], for which the melting point is 105 °C.
`NC1CCCC1` [cyclopentylamine]: the melting point is -85 °C.
Under `C=C(Cl)CCl` [2,3-dichloro-1-propene] stands -83 °C; under `OC1OC[C@@H](O)[C@H](O)[C@H]1O` (stereo partly drawn) [D-xylose], 149 °C.
`CCC(C)(C)c1ccc(OCC(=O)O)c(C(C)(C)CC)c1` [2,4-di(tert-pentyl)phenoxyacetic acid] yielded a melting point of 126 °C.
As for `CCC(C)c1ccccc1O` (configuration not stated) [2-sec-Butylphenol], the figure is 12 °C.
`CNC(=O)c1ccc(-c2ccccc2)cc1` [p-phenyl-n-methylbenzamide] displayed a melting point of 86 °C.
Under `N#CCc1ccc(N)cc1` [4-aminobenzyl_cyanide] stands 45 °C.
Take `C[C@@H](CO)NC(=O)OC(C)(C)C` [N-boc-L-alaninol]: the melting point came out at 59 °C.
`CC(=O)Nc1ccc(C=O)cc1` [4-acetamidobenzaldehyde] gave a melting point of 160 °C.
For `CCNc1nc(NC(C)(C)C)nc(SC)n1` [Terbutryn], the melting point turned out to be 105 °C.
For the compound `CCCc1cc(Br)c(N)c(Br)c1` [2,6-dibromo-4-n-propylaniline], the melting point is 56 °C.
